Three molecules from patent publication US9890118B2, “Prostamides for the treatment of glaucoma and related diseases” (Allergan, Inc., priority 2004, dated 2018) can be followed below.

Marks after values point to notes of the source that are not given here.

In this experiment the test system is dogs (Beagle). In words: Intraocular pressure studies by pneumatonometry in conscious dogs. In kind it is in vivo. The following applies: topical 25 μL drop, 0.03% drug in 0.1% polysorbate 80:10 mM TRIS, one eye; for Change in Intraocular Pressure (IOP), 0 hrs: 0 hrs (just before drug administration); for Change in Intraocular Pressure (IOP), 2 hrs: 2 hrs after dosing; for Change in Intraocular Pressure (IOP), 4 hrs: 4 hrs after dosing; for Change in Intraocular Pressure (IOP), 6 hrs: 6 hrs after dosing; for Change in Intraocular Pressure (IOP), 24 hrs: 24 hrs after dosing. On the procedure: Intraocular pressure studies were carried out for compounds 1-3 by pneumatonometry in dogs (Beagle) of both sexes (10-15 kg). The animals remained conscious throughout the study and were gently restrained by hand. Drugs were administered topically to one eye as a 25 μL volume drop comprising 0.03% drug, 0.1% polysorbate 80:10 mM TRIS, the other eye received 0.1% polysorbate 80:10 mM TRIS. Proparacaine (0.1%) was used for corneal anesthesia during tonometry. Intraocular pressure was determined just before drug administration and at 2, 4 and 6 hours thereafter on each day of the 5 day study. […] Drug was administered immediately after the first IOP reading.

As for `CCCCC[C@H](O)/C=C/[C@@H]1[C@@H](C/C=C\CCCC(=O)NCCc2c[nH]c3ccc(O)cc23)[C@@H](O)C[C@H]1O` [Compound 3, (Z)-7-[(1R,2R,3R,5S)-3,5-Dihydroxy-2-((E)-(S)-3-hydroxy-oct-1-enyl)-cyclopentyl]-hept-5-enoic acid [2-(5-hydroxy-1H-indol-3-yl)-ethyl]-amide], the “Change in Intraocular Pressure (IOP), 0 hrs” value worked out at 0; the “Change in Intraocular Pressure (IOP), 2 hrs” value was −3.2*; the “Change in Intraocular Pressure (IOP), 4 hrs” value is −5.8*; the “Change in Intraocular Pressure (IOP), 6 hrs” value was −7.6**. The “Change in Intraocular Pressure (IOP), 24 hrs” value was −2.2.
In the same order, the values of `CCCCC[C@H](O)/C=C/[C@@H]1[C@@H](C/C=C\CCCC(=O)NCCc2ccc(O)c(O)c2)[C@@H](O)C[C@H]1O` [Compound 2, (Z)-7-[(1R,2R,3R,5S)-3,5-Dihydroxy-2-((E)-(S)-3-hydroxy-oct-1-enyl)-cyclopentyl]-hept-5-enoic acid [2-(3,4-dihydroxy-phenyl)-ethyl]-amide] are 0, −3.8*, −3.2**, −3.2** and −1.1*.
Turning to `CCCCC[C@H](O)/C=C/[C@@H]1[C@@H](C/C=C\CCCC(=O)NCCc2ccc(OC(C)=O)c(OC(C)=O)c2)[C@@H](O)C[C@H]1O` [Compound 1, acetic acid 2-acetoxy-5-(2-{(Z)-7-[(1R,2R,3R,5S)-3,5-dihydroxy-2-((E)-(S)-3-hydroxy-oct-1-enyl)-cyclopenyl]-hept-5-enoylamino}-ethyl)-phenyl ester], the “Change in Intraocular Pressure (IOP), 0 hrs” value amounted to 0; the “Change in Intraocular Pressure (IOP), 2 hrs” value was −4.4**; the “Change in Intraocular Pressure (IOP), 4 hrs” value is on record as −3.4**; the “Change in Intraocular Pressure (IOP), 6 hrs” value is −3.1**. The “Change in Intraocular Pressure (IOP), 24 hrs” value was −1.4*.
